Publication PMC11467779, “New anti-ovarian cancer quinolone derivatives acting by modulating microRNA processing machinery” (RSC Medicinal Chemistry, 2024)

Key:
SKOV-3 cell line = assay: Antiproliferative effect against the SKOV-3 cell line (GI50, cell count); type: cell-based, human; settings: for GI50: Homo sapiens, SK-OV-3, 72 h
Description: (§1) SKOV-3, A2780 and A2780 CIS were cultured and maintained, as previously described,[50] at 37 °C in RPMI 1640 medium (Euroclone) supplemented with 10% fetal bovine serum (FBS; Euroclone), L-glutamine and penicillin/streptomycin (SIGMA-ALDRICH). OVCA433, HEK-293T, HeLa, HCCLM3, SK-Hep-1, MCF-7, A549 and HCT-116 cells were maintained in DMEM medium (Euroclone) containing 10% FBS (Euroclone), L-glutamine and penicillin/streptomycin (SIGMA-ALDRICH). Wi-38 cells were cultured in DMEM medium (Euroclone) supplemented with 10% FBS (Euroclone), L-glutamine and penicillin/streptomycin (SIGMA-ALDRICH), and 1% non-essential amino acids (NEAA; Euroclone). The cultures were maintained in a constant temperature incubator at 37 °C with 5% CO2. […] Once cell adhesion had been promoted, the compounds were added to the culture medium. After 72 hours of treatment, the cells were counted, and the data analyzed by linear regression. Each experiment was carried out three times in triplicate and three separate cell counts were made for each sample. […] Afterwards, the concentration range was narrowed to the relative value obtained in the first evaluation in order to obtain an accurate value.

[1] = Cytotoxicity against non-tumor Wi-38 cells (CC50, cell count); type: cell-based; settings: human, Wi-38 cells (non-tumor), 50% cytotoxicity concentration, 72 hours of treatment
Description: as §1

miRNA processing / RNAi = system: miRNA processing / RNAi; design: method as in PMID 18641635; settings: cited from earlier work
[2] = system: cisplatin-resistant A2780 cells (A2780 CIS); assay: Viable cells of cisplatin-resistant A2780 (A2780 CIS) treated with 33, cisplatin or both; type: cell-based, human; settings: cisplatin 1 μM, 48 hours
Description: A2780 and SKOV-3 cells were treated with 50 μM of 33 for 72 h before RNA and protein extraction and expression analyses. A2780 and A2780 CIS were treated with 33 (30 μM) and/or cisplatin (1 μM, Sigma-Aldrich) for 48 hours while MCF-7, A549 and HCT-116 were treated with 33 (30 μM) for 72 hours. Total cell number and viability have been assessed using Trypan Blue Solution (Thermo Fisher Scientific) and Countess™ 3 Automated Cell Counter (Thermo Fisher Scientific).

[3] = 50% cell growth inhibition, 72 hours of treatment, cell count, ND = activity not dose dependent

Structure (SMILES) | GI50 (SKOV-3 cell line; [3]) [µM] | CC50 at 72 h [1] [µM] | further results
Cn1cc(C(=O)O)c(=O)c2cc(N)c(N3CCN(c4nccs4)CC3)cc21 [Compound 8] | 50 | – | –
Cn1cc(C(=O)O)c(=O)c2ccc(N3CCN(c4nccs4)CC3)nc21 [Compound 9] | 50 | – | –
CN1CCN(c2c(F)cc3c(=O)c(C(=O)O)cn4c3c2SCC4)CC1 [Compound 10, rufloxacin, reference compound] | 100 | – | –
CCn1cc(C(=O)O)c(=O)c2cc(N)c(N3CCc4ccccc4C3)c(C)c21 [Compound 11, 6-Amino-7-(3,4-dihydroisoquinolin-2(1H)-yl)-1-ethyl-8-methyl-4-oxo-1,4-dihydroquinoline-3-carboxylic acid] | 13.1 ± 1.29 | 53.5 ± 20.6 | fold more toxic against tumor cells (CC50 Wi-38 vs GI50 SKOV-3) (SKOV-3 cell line; SKOV-3 versus Wi-38): approximately 4 fold
Cc1c(N2CCC(c3ccccc3)CC2)c(N)cc2c(=O)c(C(=O)O)cn(C3CC3)c12 [Compound 12, 6-Amino-1-cyclopropyl-8-methyl-4-oxo-7-(4-phenylpiperidin-1-yl)-1,4-dihydroquinoline-3-carboxylic acid] | 17.1 ± 2.61 | 53 ± 14.9 | –
Cc1c(N2Cc3ccccc3C2)c(N)cc2c(=O)c(C(=O)O)cn(C3CC3)c12 [Compound 13, 6-Amino-1-cyclopropyl-7-(1,3-dihydro-2H-isoindol-2-yl)-8-methyl-4-oxo-1,4-dihydroquinoline-3-carboxylic acid] | 28.8 ± 4.11 | – | –
Cc1c(NCCN2CCCCC2)c(N)cc2c(=O)c(C(=O)O)cn(C3CC3)c12 [Compound 14, 6-Amino-1-cyclopropyl-8-methyl-4-oxo-7-[(2-piperidin-1-ylethyl)amino]-1,4-dihydroquinoline-3-carboxylic acid] | 103 ± 21.6 | – | –
Nc1cc2c(=O)c(C(=O)O)cn(C3CC3)c2cc1N1CCc2ccccc2C1 [Compound 15, 6-Amino-1-cyclopropyl-7-(3,4-dihydroisoquinolin-2(1H)-yl)-4-oxo-1,4-dihydroquinoline-3-carboxylic acid] | 13.2 ± 1.13 | 36.3 ± 8.86 | –
CCn1cc(C(=O)O)c(=O)c2cc(N)c(N3CCc4ccccc4C3)cc21 [Compound 16, 6-Amino-7-(3,4-dihydroisoquinolin-2(1H)-yl)-1-ethyl-4-oxo-1,4-dihydroquinoline-3-carboxylic acid] | 5.44 ± 0.13 | 8.19 ± 14.3 | –
NC(=O)c1cn(C2CC2)c2cc(N3CCc4ccccc4C3)c(N)cc2c1=O [Compound 17, 6-Amino-1-cyclopropyl-7-(3,4-dihydroisoquinolin-2(1H)-yl)-4-oxo-1,4-dihydroquinoline-3-carboxamide] | – | – | GI50 SKOV-3 (SKOV-3 cell line; [3]): completely inactive
Nc1cc2c(=O)c(C(=O)O)cn(C3CC3)c2cc1N1CCc2ncncc2C1 [Compound 18, 6-Amino-1-cyclopropyl-7-(7,8-dihydropyrido[4,3-d]pyrimidin-6(5H)-yl)-4-oxo-1,4-dihydroquinoline-3-carboxylic acid] | 152 ± 3.05 | – | –
Nc1cc2c(=O)c(C(=O)O)cn(C3CC3)c2cc1N1CCc2nccnc2C1 [Compound 19, 6-Amino-1-cyclopropyl-7-(7,8-dihydropyrido[3,4-b]pyrazin-6(5H)-yl)-4-oxo-1,4-dihydroquinoline-3-carboxylic acid] | 104 ± 2.03 | – | –
Nc1cc2c(=O)c(C(=O)O)cn(C3CC3)c2cc1N1CCNc2ccccc21 [Compound 20, 6-Amino-1-cyclopropyl-7-(3,4-dihydroquinoxalin-1(2H)-yl)-4-oxo-1,4-dihydroquinoline-3-carboxylic acid] | 65.4 ± 24.3 | – | –
Nc1cc2c(=O)c(C(=O)O)cn(C3CC3)c2cc1N1CCc2sccc2C1 [Compound 21, 6-Amino-1-cyclopropyl-7-(6,7-dihydrothieno[3,2-c]pyridin-5(4H)-yl)-4-oxo-1,4-dihydroquinoline-3-carboxylic acid] | 23.7 ± 1.02 | 103 ± 15.5 | –
CC1c2ccccc2CCN1c1cc2c(cc1N)c(=O)c(C(=O)O)cn2C1CC1 (centres unmarked) [Compound 22, 6-Amino-1-cyclopropyl-7-(1-methyl-3,4-dihydroisoquinolin-2(1H)-yl)-4-oxo-1,4-dihydroquinoline-3-carboxylic acid] | 18.5 ± 1.71 | 59.9 ± 5.95 | –
Nc1cc2c(=O)c(C(=O)O)cn(C3CC3)c2cc1N1Cc2ccccc2C[C@H]1CO [Compound 23, 6-Amino-1-cyclopropyl-7-[(3S)-3-(hydroxymethyl)-3,4-dihydroisoquinolin-2(1H)-yl]-4-oxo-1,4-dihydroquinoline-3-carboxylic acid] | 46.2 ± 8.38 | – | –
Nc1cc2c(=O)c(C(=O)O)cn(C3CC3)c2cc1N1CCC(c2ccccc2)CC1 [Compound 24, 6-Amino-1-cyclopropyl-4-oxo-7-(4-phenylpiperidin-1-yl)-1,4-dihydroquinoline-3-carboxylic acid] | 9.19 ± 1.05 | 45 ± 13.4 | –
CCN(Cc1ccccc1)c1cc2c(cc1N)c(=O)c(C(=O)O)cn2C1CC1 [Compound 25, 6-Amino-7-[benzyl(ethyl)amino]-1-cyclopropyl-4-oxo-1,4-dihydroquinoline-3-carboxylic acid] | 16 ± 2.94 | 79.7 ± 11.8 | –
Nc1cc2c(=O)c(C(=O)O)cn(C3CC3)c2cc1N(CCO)Cc1ccccc1 [Compound 26, 6-Amino-7-[benzyl(2-hydroxyethyl)amino]-1-cyclopropyl-4-oxo-1,4-dihydroquinoline-3-carboxylic acid] | 33.9 ± 6.43 | – | fold increase in GI50 SKOV-3 versus 25 (SKOV-3 cell line; versus compound 25): 2 fold
O=C(O)c1cn(C2CC2)c2nc(N3CCc4ccccc4C3)c(F)cc2c1=O [Compound 28, 1-Cyclopropyl-7-(3,4-dihydroisoquinolin-2(1H)-yl)-6-fluoro-4-oxo-1,4-dihydro-1,8-naphthyridine-3-carboxylic acid] | 46.8 ± 7.44 | – | –
CCN(Cc1ccccc1)c1nc2c(cc1F)c(=O)c(C(=O)O)cn2CC [Compound 29, 7-[Benzyl(ethyl)amino]-1-ethyl-6-fluoro-4-oxo-1,4-dihydro-1,8-naphthyridine-3-carboxylic acid] | 16.2 ± 1.03 | 25.5 ± 11.5 | –
CCn1cc(C(=O)O)c(=O)c2cc(F)c(N3CCC(c4ccccc4)CC3)nc21 [Compound 30, 1-Ethyl-6-fluoro-4-oxo-7-(4-phenylpiperidin-1-yl)-1,4-dihydro-1,8-naphthyridine-3-carboxylic acid] | 8.34 ± 1.28 | 4.65 ± 5.96 | –
CCn1cc(C(=O)O)c(=O)c2cc(F)c(N3CCc4ccccc4C3)c(C)c21 [Compound 31, 7-(3,4-Dihydroisoquinolin-2(1H)-yl)-1-ethyl-6-fluoro-8-methyl-4-oxo-1,4-dihydroquinoline-3-carboxylic acid] | 14.9 ± 3.24 | 56.6 ± 37.4 | –
Cc1c(N2CCc3ccccc3C2)c(F)cc2c(=O)c(C(=O)O)cn(C3CC3)c12 [Compound 32, 1-Cyclopropyl-7-(3,4-dihydroisoquinolin-2(1H)-yl)-6-fluoro-8-methyl-4-oxo-1,4-dihydroquinoline-3-carboxylic acid] | 25 ± 6.04 | 90.7 ± 30.9 | –
O=C(O)c1cn(C2CC2)c2cc(N3CCNCC3)c(F)cc2c1=O [ciprofloxacin] | – | – | RNAi enhancer / SMER effect (miRNA processing / RNAi): very weak SMER
N.N.[Cl][Pt][Cl] [cisplatin, reference compound] | – | – | resistance of A2780 CIS to cisplatin compared to A2780 [2]: significantly greater resistance to cisplatin
CC1COc2c(N3CCN(C)CC3)c(F)cc3c(=O)c(C(=O)O)cn1c23 (centres unmarked) [ofloxacin] | – | – | RNAi enhancer / SMER effect (miRNA processing / RNAi): did not show any significant RNAi enhancer effect
